Patent publication US11517617B2, “Methods and compositions for preventing influenza infection” (THE UNIVERSITY OF MELBOURNE, priority 2017, dated 2022)
No end group written: not given here.

Columns and labels:
[1] = tested on: CD8^+ T cells; type: cell-based, human
[2] = tested on: memory CD8^+ T cells within PBMCs; type: cell-based, human

Row | Sequence | additional low avidity CD8^+ T cells detected by Q115E staining [1] | cross-reactivity of CD8^+ T cells after in vitro expansion with the peptide [2] | recognition of IBV-derived variant by IAV-expanded CD8^+ T cells [2]
1 | GILGFVFVL [M158-66, GILGFVFVL, reference compound] | could be detected |  | 
2 | VADGGPNIY (Influenza B virus) [BPB1590-598, IBV variant of PB1591-599] |  | could not expand CD8^+ T cells | to a lesser extent
3 | VSDGGPNLY (Influenza A virus) [PB1591-599] |  | recognizing both IAV- and IBV-derived peptides | 
